From the supplement of paper PMC10307832

Columns and labels:
Assay in all cases: relative viability (nuclei count vs DMSO), 5 days (fraction); higher = more cells survive
[1] = compound: CC[C@H](Nc1ncnc2[nH]cnc12)c1nc2cccc(F)c2c(=O)n1-c1ccccc1 [Idelalisib] + CCNC(=O)c1noc(-c2cc(C(C)C)c(O)cc2O)c1-c1ccc(CN2CCOCC2)cc1 [Luminespib] (partner 0.01 µM)
How it was run: (§1)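 Lung cancer cell lines, seeded in 1536-well plates, were treated the following day by pin tool with a single drug or with five library-drug doses (not always all listed) in √10 steps on top of a fixed anchor-drug dose. Cells were fixed and nuclei stained in one step after 5 days, and nuclei were counted. Relative viability is the nuclei count for treated wells divided by that for vehicle wells, reported as medians of duplicate plates.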

[2] = compound: Nc1nc2[nH]cc(CCc3ccc(C(=O)N[C@@H](CCC(=O)O)C(=O)O)cc3)c2c(=O)[nH]1 [Pemetrexed] + CCNC(=O)c1noc(-c2cc(C(C)C)c(O)cc2O)c1-c1ccc(CN2CCOCC2)cc1 [Luminespib] (partner 0.01 µM)
How it was run: as §1

[3] = compound: Nc1nc2[nH]cc(CCc3ccc(C(=O)N[C@@H](CCC(=O)O)C(=O)O)cc3)c2c(=O)[nH]1 [Pemetrexed] + Cc1nc(Nc2ncc(C(=O)Nc3c(C)cccc3Cl)s2)cc(N2CCN(CCO)CC2)n1 [Dasatinib] (partner 0.075 µM)
How it was run: as §1

[4] = compound: Nc1nc2[nH]cc(CCc3ccc(C(=O)N[C@@H](CCC(=O)O)C(=O)O)cc3)c2c(=O)[nH]1 [Pemetrexed] + O=C(CCCCCCC(=O)Nc1ccccc1)NO [Vorinostat] (partner 1 µM)
How it was run: as §1

Cell Line	relative viability ([1]; first compound 0.04 µM)	relative viability ([1]; first compound 0.1265 µM)	relative viability ([1]; first compound 0.4 µM)	relative viability ([1]; first compound 1.265 µM)	relative viability ([1]; first compound 4 µM)	relative viability ([2]; first compound 0.002 µM)	relative viability ([2]; first compound 0.006325 µM)	relative viability ([2]; first compound 0.02 µM)	relative viability ([2]; first compound 0.06325 µM)	relative viability ([2]; first compound 0.2 µM)	relative viability ([3]; first compound 0.002 µM)	relative viability ([3]; first compound 0.006325 µM)	relative viability ([3]; first compound 0.02 µM)	relative viability ([3]; first compound 0.06325 µM)	relative viability ([3]; first compound 0.2 µM)	relative viability ([4]; first compound 0.002 µM)	relative viability ([4]; first compound 0.006325 µM)	relative viability ([4]; first compound 0.02 µM)	relative viability ([4]; first compound 0.06325 µM)	relative viability ([4]; first compound 0.2 µM)
COR-L23	0.848	0.681	0.699	0.819	0.549	0.639	0.63	0.771	0.358	0.176	0.457	0.468	0.396	0.263	0.135	0.474	0.398	0.424	0.186	0.136
A-427	0.833	0.857	0.744	0.879	0.783	0.912	0.923	0.968	0.793	0.956	0.618	0.696	0.711	0.689	0.664	0.855	0.865	0.867	0.876	0.708
NCI-H520	0.197	0.251	0.222	0.217	0.192	0.215	0.234	0.223	0.261	0.2	0.235	0.224	0.208	0.203	0.235	0.671	0.7	0.718	0.681	0.709
LXF-289	0.776	0.575	0.663	0.815	0.439	0.687	0.648	0.731	0.639	0.651	0.175	0.192	0.239	0.281	0.217	0.625	0.758	0.795	0.74	0.718
NCI-H2087	0.198	0.213	0.16	0.165	0.115	0.206	0.204	0.243	0.152	0.136	0.819	0.808	0.974	0.751	0.59	0.662	0.751	1.06	0.591	0.757
CAL-12T	0.302	0.635	0.362	0.564	0.264	0.307	0.352	0.38	0.363	0.557	0.327	0.322	0.515	0.43	0.5	0.634	0.683	0.852	0.704	0.821
NCI-H596	1.13	0.925	0.827	0.905	0.847	0.97	1.01	1.14	0.945	0.679	0.634	0.642	0.464	0.427	0.414	0.707	0.577	0.576	0.468	0.385
PC-14	0.158	0.136	0.127	0.154	0.123	0.15	0.133	0.151	0.136	0.137	0.249	0.242	0.316	0.0953	0.0482	0.656	0.636	0.775	0.226	0.123
NCI-H1915	0.843	0.809	0.759	0.878	0.83	0.818	0.857	0.84	0.836	0.781	0.236	0.313	0.313	0.306	0.319	0.419	0.484	0.526	0.463	0.549
NCI-H647	0.171	0.141	–	0.241	0.121	0.21	0.189	0.257	0.17	0.131	0.151	0.16	0.175	0.156	0.127	0.387	0.479	0.594	0.458	0.171
NCI-H322M	0.955	0.919	0.719	0.847	0.683	0.987	0.767	0.853	0.84	0.752	0.248	0.257	0.262	0.242	0.235	0.84	0.957	0.888	0.893	0.58
NCI-H2170	0.548	0.843	0.645	0.61	0.673	0.684	0.861	0.709	0.749	0.583	0.581	0.631	0.612	0.505	0.575	0.564	0.813	0.899	0.823	0.45
BEN	0.333	0.459	0.232	0.416	0.242	0.491	0.435	0.374	0.484	0.559	0.374	0.288	0.345	0.303	0.349	0.6	0.578	0.587	0.573	0.555
NCI-H2009	1.01	1.04	1.02	1.11	1.03	0.94	0.995	1.04	0.991	1.03	0.299	0.289	0.377	0.265	0.307	0.631	0.7	0.776	0.681	0.654
LC-2-ad	1.17	1.06	0.886	1.14	0.957	1.09	0.989	0.709	0.313	0.303	0.454	0.525	0.347	0.208	0.222	0.657	0.671	0.663	0.319	0.27
NCI-H1437	1.11	1.15	1.05	1.22	1.18	–	1.06	0.997	0.856	0.487	–	0.473	0.468	0.334	0.21	0.853	0.813	0.806	0.596	0.364

Cell Line	relative viability ([1]; first compound 0.04 µM)	relative viability ([1]; first compound 0.1265 µM)	relative viability ([1]; first compound 0.4 µM)	relative viability ([1]; first compound 1.265 µM)	relative viability ([1]; first compound 4 µM)	relative viability ([2]; first compound 0.002 µM)	relative viability ([2]; first compound 0.006325 µM)	relative viability ([2]; first compound 0.02 µM)	relative viability ([2]; first compound 0.06325 µM)	relative viability ([2]; first compound 0.2 µM)	relative viability ([3]; first compound 0.002 µM)	relative viability ([3]; first compound 0.006325 µM)	relative viability ([3]; first compound 0.02 µM)	relative viability ([3]; first compound 0.06325 µM)	relative viability ([3]; first compound 0.2 µM)	relative viability ([4]; first compound 0.002 µM)	relative viability ([4]; first compound 0.006325 µM)	relative viability ([4]; first compound 0.02 µM)	relative viability ([4]; first compound 0.06325 µM)	relative viability ([4]; first compound 0.2 µM)
NCI-H3122	0.0784	0.0938	0.115	0.0796	0.0833	0.106	0.106	0.106	0.0892	0.0783	0.707	0.815	0.659	0.674	0.463	1.12	0.893	0.96	0.755	0.454
NCI-H727	0.327	0.345	–	0.333	0.451	–	0.255	0.346	0.689	0.506	–	0.395	0.386	0.421	0.381	1.18	1.12	1.26	1.16	1.06
NCI-H1734	0.247	0.184	0.203	0.192	0.155	0.208	0.192	0.219	0.206	0.218	0.388	0.445	0.49	0.433	0.381	0.794	0.725	0.931	0.778	0.708
HCC-15	0.185	0.242	0.286	0.26	0.404	0.454	0.391	0.475	0.406	0.23	0.661	0.609	0.619	0.31	0.148	0.821	0.76	0.878	0.69	0.345
NCI-H2405	0.777	0.621	0.473	0.52	0.442	0.703	0.775	0.77	0.818	0.789	0.182	0.228	0.228	0.205	0.209	0.929	1.2	1.07	1.02	0.96
NCI-H1993	0.778	0.889	0.779	1.06	0.822	0.432	0.623	0.868	0.913	0.41	0.325	0.606	0.546	0.496	0.358	0.832	0.863	0.701	0.67	0.612
NCI-H1650	0.18	0.191	0.198	0.219	0.185	0.192	0.18	0.199	0.178	0.183	0.42	0.32	0.326	0.235	0.23	0.521	0.671	0.634	0.443	0.234
NCI-H460	0.0345	0.032	0.0291	0.0326	0.0297	0.0265	0.0449	0.0346	0.0259	0.0265	0.357	0.536	0.524	0.406	0.101	–	0.683	0.784	0.57	0.0651
NCI-H1651	0.789	1	0.832	0.809	0.605	0.845	0.792	0.965	0.983	0.732	0.388	0.357	0.439	0.346	0.428	0.553	0.562	0.642	0.44	0.548
NCI-H1975	0.216	0.157	0.16	0.213	0.207	0.169	0.295	0.177	0.195	0.169	0.249	0.333	0.429	0.342	0.275	0.666	0.721	0.699	0.588	0.308
NCI-H2126	0.929	0.893	0.802	0.961	0.929	0.827	0.96	0.89	0.883	0.831	0.571	0.607	0.625	0.548	0.517	0.638	0.719	0.777	0.798	0.688
201T	1.12	1.07	1.02	1.02	0.849	1.03	1.04	1.05	1.1	1.09	0.59	0.554	0.592	0.559	0.507	0.867	0.971	1.03	1.03	0.848
NCI-H358	0.284	0.587	0.347	0.235	0.159	0.268	0.368	0.227	0.367	0.146	0.145	0.176	0.205	0.167	0.165	0.616	0.655	0.414	0.167	0.122
SK-LU-1	0.225	0.189	0.185	0.188	0.205	0.195	0.2	0.187	0.2	0.21	0.184	0.205	0.185	0.198	0.162	0.684	0.782	0.887	0.763	0.795
H3255	1.13	0.786	0.78	0.882	0.878	0.714	0.799	0.93	0.852	0.844	0.236	0.403	0.429	0.362	0.29	0.66	0.767	0.753	0.817	0.596
LOU-NH91	0.281	0.321	0.327	0.33	0.315	0.399	0.318	0.374	0.298	0.315	0.495	0.576	0.599	0.457	0.345	0.878	0.906	1.02	0.591	0.395
